“And” between values parts separate entries of the source, which are not always exact repeats. Equal entries are not always repeated. Inconclusive results and toxic doses are left out. Rule for the calls: active = survival T/C of 150% or more; inactive = T/C below 125% in these data.
Tested on: CD2F1 mice, L1210 leukemia ip, survival T/C
Assay: NCI In Vivo Anticancer Drug Screen. Data for tumor model L1210 Leukemia (intraperitoneal) in CD2F1 (CDF1) mice
Settings: higher = longer survival
In short: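 Each value reflects a quotient of treated over vehicle control outcomes in mice with a transplanted tumor.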

[1] = endpoint: mean survival time, dose: 25.0 mg/kg/injection, schedule: Q01DX009 (ip), vehicle: saline with Tween-80
[2] = endpoint: mean survival time, dose: 50.0 mg/kg/injection, schedule: Q01DX009 (ip), vehicle: saline with Tween-80
[3] = endpoint: mean survival time, dose: 100.0 mg/kg/injection, schedule: Q01DX009 (ip), vehicle: saline with Tween-80
[4] = endpoint: mean survival time, dose: 100.0 mg/kg/injection, schedule: Q04DX003 (ip), vehicle: saline
[5] = endpoint: mean survival time, dose: 100.0 mg/kg/injection, schedule: Q01DX009 (ip), vehicle: saline
[6] = endpoint: mean survival time, dose: 50.0 mg/kg/injection, schedule: Q01DX005 (ip), vehicle: water
[7] = endpoint: mean survival time, dose: 100.0 mg/kg/injection, schedule: Q01DX005 (ip), vehicle: water
[8] = endpoint: mean survival time, dose: 100.0 mg/kg/injection, schedule: Q04DX002 (ip), vehicle: saline with Tween-80
[9] = endpoint: mean survival time, dose: 200.0 mg/kg/injection, schedule: Q04DX002 (ip), vehicle: saline with Tween-80
[10] = endpoint: mean survival time, dose: 100.0 mg/kg/injection, schedule: Q04DX003 (ip), vehicle: saline with Tween-80
[11] = endpoint: mean survival time, dose: 200.0 mg/kg/injection, schedule: Q04DX003 (ip), vehicle: saline with Tween-80
[12] = endpoint: mean survival time, dose: 400.0 mg/kg/injection, schedule: Q04DX003 (ip), vehicle: saline with Tween-80
[13] = endpoint: mean survival time, dose: 200.0 mg/kg/injection, schedule: Q01DX009 (ip), vehicle: saline with Tween-80
[14] = endpoint: mean survival time, dose: 400.0 mg/kg/injection, schedule: Q01DX009 (ip), vehicle: saline with Tween-80

Measured: T/C

CCCCCC[C@@H](O)[C@@H]1C2=C(C[C@H]([C@H](O)[C@@H]3CC=CC(=O)O3)CC3=C(C(=O)OC3=O)[C@@H]1O)C(=O)OC2=O
inactive: endpoint: mean survival time, dose: 0.13 mg/kg/injection, schedule: Q01DX001 (ip), vehicle: saline 97 % of control | endpoint: mean survival time, dose: 0.25 mg/kg/injection, schedule: Q01DX001 (ip), vehicle: saline 95 % of control | endpoint: mean survival time, dose: 0.5 mg/kg/injection, schedule: Q01DX001 (ip), vehicle: saline 96 % of control | endpoint: mean survival time, dose: 1.0 mg/kg/injection, schedule: Q01DX001 (ip), vehicle: saline 96 % of control | endpoint: mean survival time, dose: 2.0 mg/kg/injection, schedule: Q01DX001 (ip), vehicle: saline 96 % of control

c1cc2c3c(c1)nc(CCc1nc4cccc5c4n1CCC5)n3CCC2
inactive: [1] 100 % of control | [2] 91 % of control | [3] 92 % of control

O=C1CCn2cccc21
inactive: endpoint: median survival time, dose: 25.0 mg/kg/injection, schedule: Q04DX002 (ip), vehicle: saline 100 % of control | endpoint: median survival time, dose: 50.0 mg/kg/injection, schedule: Q04DX002 (ip), vehicle: saline 100 % of control | endpoint: median survival time, dose: 100.0 mg/kg/injection, schedule: Q04DX002 (ip), vehicle: saline 100 % of control | endpoint: median survival time, dose: 200.0 mg/kg/injection, schedule: Q04DX002 (ip), vehicle: saline 100 % of control

CC1=NC(c2ccccn2)=NNC(c2ccccn2)=C1c1ccccc1
inactive: endpoint: mean survival time, dose: 12.5 mg/kg/injection, schedule: Q01DX009 (ip), vehicle: water 98 % of control | endpoint: mean survival time, dose: 25.0 mg/kg/injection, schedule: Q01DX009 (ip), vehicle: water 96 % of control | endpoint: mean survival time, dose: 50.0 mg/kg/injection, schedule: Q01DX009 (ip), vehicle: water 98 % of control | endpoint: mean survival time, dose: 100.0 mg/kg/injection, schedule: Q01DX009 (ip), vehicle: water 86 % of control | endpoint: mean survival time, dose: 200.0 mg/kg/injection, schedule: Q01DX009 (ip), vehicle: water 90 % of control

NC(=O)CCl
inactive: [4] 110 % of control

CC(N)C12CC3CC(CC(C3)C1)C2 (configuration not stated)
inactive: endpoint: mean survival time, dose: 25.0 mg/kg/injection, schedule: Q01DX009 (ip), vehicle: saline 117 % of control | endpoint: mean survival time, dose: 50.0 mg/kg/injection, schedule: Q01DX009 (ip), vehicle: saline 98 % of control | [5] 95 % of control

CC(=O)c1cc(C)c[n+](C2OC(COC(=O)c3ccccc3)C(OC(=O)c3ccccc3)C2O)c1 (configuration not stated)
inactive: endpoint: mean survival time, dose: 3.13 mg/kg/injection, schedule: Q01DX005 (ip), vehicle: water 100 % of control | endpoint: mean survival time, dose: 6.25 mg/kg/injection, schedule: Q01DX005 (ip), vehicle: water 98 % of control | endpoint: mean survival time, dose: 12.5 mg/kg/injection, schedule: Q01DX005 (ip), vehicle: water 106 % of control | endpoint: mean survival time, dose: 25.0 mg/kg/injection, schedule: Q01DX005 (ip), vehicle: water 93 % of control | [6] 100 % of control and 101 % of control | [7] 93 % of control

c1ccc(Oc2ccc(Nc3c4ccccc4nc4ccccc34)cc2)cc1
inactive: [8] 101 % of control | [9] 101 % of control | endpoint: mean survival time, dose: 400.0 mg/kg/injection, schedule: Q04DX002 (ip), vehicle: saline with Tween-80 104 % of control

Cn1c(=O)c2[nH]c(-c3ccc4c(c3)OCO4)nc2n(C)c1=O
inactive: [10] 89 % of control | [11] 92 % of control | [12] 88 % of control

O=P(OCCCCCl)(OCCCCCl)C(Cl)Cl
inactive: endpoint: mean survival time, dose: 100.0 mg/kg/injection, schedule: Q01DX001 (ip), vehicle: saline 100 % of control | endpoint: mean survival time, dose: 200.0 mg/kg/injection, schedule: Q01DX001 (ip), vehicle: saline 100 % of control | endpoint: mean survival time, dose: 400.0 mg/kg/injection, schedule: Q01DX001 (ip), vehicle: saline 108 % of control

CCCCCCCCCCCCCC#CC(=O)O
inactive: endpoint: mean survival time, dose: 3.12 mg/kg/injection, schedule: Q01DX009 (ip), vehicle: saline with Tween-80 101 % of control and 109 % of control | endpoint: mean survival time, dose: 6.25 mg/kg/injection, schedule: Q01DX009 (ip), vehicle: saline with Tween-80 96 % of control and 98 % of control | endpoint: mean survival time, dose: 12.5 mg/kg/injection, schedule: Q01DX009 (ip), vehicle: saline with Tween-80 91 % of control and 98 % of control | [1] 91 % of control and 98 % of control | [2] 91 % of control and 95 % of control | [3] 88 % of control

N=c1c2ncn(C3OC(CO)C(O)C3O)c2ncn1N (configuration not stated)
inactive: [6] 101 % of control | [7] 101 % of control | endpoint: mean survival time, dose: 200.0 mg/kg/injection, schedule: Q01DX005 (ip), vehicle: water 114 % of control

Cc1cc(C)c(CN)cc1C
inactive: endpoint: mean survival time, dose: 5.0 mg/kg/injection, schedule: Q01DX009 (ip), vehicle: saline with Tween-80 96 % of control | endpoint: mean survival time, dose: 10.0 mg/kg/injection, schedule: Q01DX009 (ip), vehicle: saline with Tween-80 105 % of control | endpoint: mean survival time, dose: 20.0 mg/kg/injection, schedule: Q01DX009 (ip), vehicle: saline with Tween-80 92 % of control

NC(=O)c1ncc(-c2ccccc2)[nH]c1=O
inactive: [4] 93 % of control | endpoint: mean survival time, dose: 200.0 mg/kg/injection, schedule: Q04DX003 (ip), vehicle: saline 98 % of control | endpoint: mean survival time, dose: 400.0 mg/kg/injection, schedule: Q04DX003 (ip), vehicle: saline 102 % of control

Cc1ccc(S(=O)(=O)OCC(OS(=O)(=O)c2ccc(C)cc2)C2OC(c3ccccc3)OC2C2COC(c3ccccc3)O2)cc1 (configuration not stated)
inactive: [3] 95 % of control | [13] 95 % of control | [14] 95 % of control

NCCNCCNCc1ccccc1
inactive: [5] 94 % of control | endpoint: mean survival time, dose: 200.0 mg/kg/injection, schedule: Q01DX009 (ip), vehicle: saline 107 % of control

O=C1C2CCN(CC2)C1COc1cccc2ccccc12 (configuration not stated)
inactive: endpoint: mean survival time, dose: 100.0 mg/kg/injection, schedule: Q01DX001 (ip), vehicle: saline with Tween-80 106 % of control | endpoint: mean survival time, dose: 200.0 mg/kg/injection, schedule: Q01DX001 (ip), vehicle: saline with Tween-80 95 % of control | endpoint: mean survival time, dose: 400.0 mg/kg/injection, schedule: Q01DX001 (ip), vehicle: saline with Tween-80 102 % of control

O=C1NCCC/C1=N/Nc1ccccc1
inactive: endpoint: mean survival time, dose: 50.0 mg/kg/injection, schedule: Q04DX002 (ip), vehicle: saline with Tween-80 100 % of control | [3] 96 % of control | [8] 108 % of control | [13] 96 % of control | [9] 112 % of control | [14] 91 % of control

C/C(=N\NC(N)=O)C(F)(F)F
inactive: [2] 101 % of control | [3] 102 % of control | [10] 97 % of control | [13] 102 % of control | [11] 108 % of control

C=C(Cl)CSCCS
inactive: endpoint: mean survival time, dose: 50.0 mg/kg/injection, schedule: Q01DX009 (ip), vehicle: acetone 101 % of control | endpoint: mean survival time, dose: 100.0 mg/kg/injection, schedule: Q01DX009 (ip), vehicle: acetone 103 % of control

Cc1ccc(S(=O)(=O)Nc2ccccc2N(CCN(CCOS(=O)(=O)c2ccc(C)cc2)S(=O)(=O)c2ccc(C)cc2)S(=O)(=O)c2ccc(C)cc2)cc1
inactive: endpoint: mean survival time, dose: 25.0 mg/kg/injection, schedule: Q04DX003 (ip), vehicle: saline with Tween-80 95 % of control | endpoint: mean survival time, dose: 50.0 mg/kg/injection, schedule: Q04DX003 (ip), vehicle: saline with Tween-80 100 % of control | [10] 91 % of control | [11] 95 % of control

C=C1C(=O)OC2/C=C(\C)CC/C=C(/C)CC(OC(=O)/C(=C/CO)CO)C12 (configuration not stated)
inactive: endpoint: mean survival time, dose: 10.0 mg/kg/injection, schedule: Q01DX009 (ip), vehicle: Klucel (hydroxypropylcellulose) (HPC) 96 % of control | endpoint: mean survival time, dose: 20.0 mg/kg/injection, schedule: Q01DX009 (ip), vehicle: Klucel (hydroxypropylcellulose) (HPC) 100 % of control | endpoint: mean survival time, dose: 40.0 mg/kg/injection, schedule: Q01DX009 (ip), vehicle: Klucel (hydroxypropylcellulose) (HPC) 95 % of control

COc1cc(/C=N/n2cnnc2)cc(OC)c1OC
inactive: [10] 101 % of control | [11] 95 % of control | [12] 96 % of control
